{"source": "patent US20070114186A1", "about": "(priority 2003, published 2007)", "system": "pseudomonas & other pathogens", "data": [{"smiles": "[Zn]", "note": "[zinc]", "values": [{"measurement": "kills pseudomonas & other pathogens", "result": "kills pseudomonas & other pathogens"}]}]}
